Reference: patent US20170258761A1, “Pharmaceutical Compositions Comprising Canagliflozin” (Sandoz AG, priority 2014, published 2017)
Values after ≈ are worked out from the molar mass of the structure shown. Read-outs that look alike come from different tables or passages of the source. Blank lines part the entries; values can stand above or below the compound they belong to.

Tests used:
Assay type in all cases: physicochemical
[1] = Water activity of excipients, normal and dried; conditions: for Water activity dry (#): excipient dried for 4 hours at ambient temperature in a vacuum chamber; for Water activity normal (*): excipient exposed to 40% RH for 24 hours at ambient temperature
Method: The influence of water activity of each excipient on chemical and physical stability of Canagliflozin was further tested.
In Table 12, the normal (*) excipients mean that they were exposed to 40% RH for 24 hours at ambient temperature; and the dry (#) excipients mean that they were dried for 4 hours at ambient temperature in a vacuum chamber.

[2] = Solubility and dynamic solubility of amorphous Canagliflozin versus hemihydrate; conditions: 37° C., shaking, HPLC
Method: Additionally dynamic solubility in water was determined at 0.5 h, 1 h and 24 h time points (37° C., shaking, HPLC determination).

[3] = Chemical stability in binary mixtures with excipients; conditions: 1 g + 1 g excipient of Table 9, tablets, 50° C., sealed glass vial, 14 days
Method: Canagliflozin degradation products were followed by high performance liquid chromatography using the following chromatographic method. Samples were dissolved in a mixture of 60 w/w % acetonitrile in buffer pH=5 (0.77 g of CH3OONH4 in 1 L of water, pH adjusted to pH=5 with acetic acid) to achieve a concentration of about 0.2 mg/ml of Canagliflozin. The sample solution was injected into an UHPLC system with a BEH C18 column (1.7 micrometer particles) using binary gradient elution. Mobile phase A consisted of mixture of 70 w/w % buffer with pH=5 in acetonitrile and mobile phase B consisted of acetonitrile. Gradient elution was performed according to the following program: mobile phase A (%)/time (min): 100%/0 min; 100%/5 min; 14%/[…]; 40%/35 min; 15%/40 min; 15%/45 min. The detector was set to a wavelength of 290 nm and impurities quantitated as area % with no response factors applied. Stability of samples was monitored by exposing them to elevated temperature (50° C.) in a sealed glass vial for 14 days. After storage, samples were analysed and the amounts of degradation products measured by UHPLC. The extent of degradation was determined by subtracting the total amount of degradation products of a […] from the total amount of degradation of a […].

[4] = Precipitation inhibition screening of excipients with nephelometer; conditions: McIlvaine buffer pH 6.8
Method: In vitro high-throughput precipitation inhibition screening with nephelometer was performed for different excipients in McIlvaine buffer pH 6.8 at 1%, 0.1%, and 0.01% (w/v) according to the procedure published in Petrusevska et al (Petrusevska et al. Evaluation of light scattering and turbidity microtiter plate-based methods for detection of the excipient-mediated drug precipitation inhibition. Eur J Pharm Biopharm, 2013). The ratio between turbidity signal for each tested concentration of selected excipient with Canagliflozin and plain buffer containing only Canagliflozin were determined.

[5] = Equilibrium solubility of Canagliflozin in McIlvaine buffer, FaSSIF and FeSSIF with excipients; conditions: 37 °C, thermodynamic from solid
[6] = as above; conditions: 37 °C, thermodynamic from solid; remark: listed apart in the source
Method: Inhibition of precipitation and supersaturation effects were also evaluated in more biorelevant dissolution media, FaSSIF and FeSSIF, prepared according to Dressman et al. (Dressman et al. Dissolution testing as a prognostic tool for oral drug absorption: immediate release dosage forms. Pharm Res, 1998)). Excipients were used in 1 mg/ml concentration. […] All tests were performed in duplicate.

[7] = Influence of water activity on physical stability of Canagliflozin; conditions: samples exposed to 30, 40, 50, 60 RH %, then 50° C. for 14 days
Method: The influence of water activity on physical stability of Canagliflozin were further tested. Prior storage at stress stability conditions samples were exposed to different relative humidity (30, 40, 50 and 60 RH %). After storage at elevated temperature (50° C.) for 14 days samples were tested for water activity and polymorphic form. It was established that Canagliflozin was physically stable when water activity was≦0.3. Results confirmed that appropriate dryness of the samples is critical for product stability.
The influence of water activity of the formulation on physical stability of Canagliflozin was further tested. Prior storage at stress stability conditions samples were exposed to different relative humidity (30, 40, 50 and 60 RH %). After storage at elevated temperature (50° C.) for 14 days samples were tested for water activity and polymorphic form. It was established that Canagliflozin was physically stable when water activity was≦0.4. Results confirmed that appropriate dryness of the samples is critical for product stability (see Table 14, showing Examples 2 and 7 as exemplary samples).

[8] = Equilibrium aqueous solubility at 25 °C (HPLC); conditions: water, 25 ± 1° C.
Method: As described in Example 5 of the co-pending application PCT/EP2014/059281, the aqueous solubilities of forms HxA and HxB of the present invention and the hemihydrate of Canagliflozin described in WO 2008/069327 A1 were determined by the equilibrium solubility method. Saturated solutions of Canagliflozin, obtained by stirring 50 mg of each crystalline form in 50 mL water were prepared and stirred at 25±1° C. After 60 minutes of stirring, three samples were withdrawn, filtered through 0.45 μm syringe filters and the filtrates were directly analyzed by HPLC.
Using six concentration points of known Canagliflozin concentrations a calibration line was fitted by linear regression.

Compound: CCCCCCCCCCCCCCCCCC(=O)[O-].CCCCCCCCCCCCCCCCCC(=O)[O-].[Mg+2] [Mg stearate]
Water activity dry (#) [1]: 15.9
Water activity normal (*) [1]: 26.6

Compound: Cc1ccc([C@@H]2O[C@H](CO)[C@@H](O)[C@H](O)[C@H]2O)cc1Cc1ccc(-c2ccc(F)cc2)s1 [amorphous Canagliflozin, 1-(β-D-glucopyranosyl)-4-methyl-3-[5-(4-fluorophenyl)-2-thienylmethyl]benzene]
dynamic solubility in water compared to crystalline Canagliflozin hemihydrate ([2]; 0.5 h, 1 h and 24 h): increased solubility as well as dynamic solubility
solubility compared to crystalline Canagliflozin hemihydrate ([2]; pH 1.2, 4.5 and 6.8): increased solubility
degradation products (impurities) in binary mixtures with excipients [3]: no increase in impurities was observed

Compound: CCCCCCCCCCCCOS(=O)(=O)[O-].[Na+] [Texapon, Sodium Lauryl Sulfate]
time Canagliflozin supersaturation was sustained ([4]; excipient at highest concentration tested (1% w/v)): 10 min
rate of canagliflozin dissolution in the presence of excipient ([4]; highest concentration tested): fastest

Compound: OC[C@H]1O[C@@H](O[C@H]2[C@H](O)[C@@H](O)C(O)O[C@@H]2CO)[C@H](O)[C@@H](O)[C@H]1O (stereo partly drawn) [Lactose anhydrous]
Water activity dry (#) [1]: 14.8
Water activity normal (*) [1]: 28.6

Further lines, with some results ahead:

solubility thermodynamic at 24 h ([5]; FaSSIF, pH 6.5, fassif, no excipient, 24 h incubation, read-out: Equilibrium solubility in FaSSIF pH 6.5): 5310 ± 970 µg/mL (≈ 11.9 mM)
solubility thermodynamic at 24 h ([5]; McIlvaine buffer, pH 6.5, aqueous buffer, buffer, no excipient, 24 h incubation, read-out: Equilibrium solubility in McIlvaine buffer pH 6.5): 21 ± 1 µg/mL (≈ 0.0472 mM)
solubility thermodynamic at 24 h ([5]; McIlvaine buffer, pH 6.5, aqueous with cosolvent or surfactant or cyclodextrin, with HPMC 606 1 mg/ml, 24 h, read-out: Equilibrium solubility in McIlvaine buffer pH 6.5): 62 ± 7 µg/mL (≈ 0.139 mM)
solubility thermodynamic at 24 h ([5]; McIlvaine buffer, pH 6.5, aqueous with cosolvent or surfactant or cyclodextrin, with Texapon 1 mg/ml, 24 h, read-out: Equilibrium solubility in McIlvaine buffer pH 6.5): 2850 ± 332 µg/mL (≈ 6.4 mM)
solubility thermodynamic at 24 h ([5]; McIlvaine buffer, pH 6.5, aqueous with cosolvent or surfactant or cyclodextrin, with Texapon + HPMC 603, each 1 mg/ml, 24 h, read-out: Equilibrium solubility in McIlvaine buffer pH 6.5): 2580 ± 36 µg/mL
solubility thermodynamic at 24 h ([6]; FaSSIF, pH 6.5, aqueous with cosolvent or surfactant or cyclodextrin, with Texapon 1 mg/ml, 24 h, read-out: Equilibrium solubility in FaSSIF pH 6.5): 7.98 mg/mL (≈ 18 mM)
solubility thermodynamic at 24 h ([6]; FaSSIF, pH 6.5, aqueous with cosolvent or surfactant or cyclodextrin, with Texapon + HPMC 603, each 1 mg/ml, 24 h, read-out: Equilibrium solubility in FaSSIF pH 6.5): 8.48 ± 0.18 mg/mL
solubility thermodynamic at 24 h ([6]; FeSSIF, pH 5.5, aqueous with cosolvent or surfactant or cyclodextrin, with Texapon 1 mg/ml, 24 h, read-out: Equilibrium solubility in FeSSIF pH 5.5): 25 ± 1.34 mg/mL (≈ 56.2 mM)
solubility thermodynamic at 24 h ([6]; FeSSIF, pH 5.5, aqueous with cosolvent or surfactant or cyclodextrin, with Texapon + HPMC 603, each 1 mg/ml, 24 h, read-out: Equilibrium solubility in FeSSIF pH 5.5): 27.8 ± 2.35 mg/mL
solubility thermodynamic at 24 h ([6]; FeSSIF, pH 5.5, fessif, no excipient, 24 h incubation, read-out: Equilibrium solubility in FeSSIF pH 5.5): 21 ± 1.03 mg/mL (≈ 47.3 mM)
water activity at which Canagliflozin was physically stable ([7]; Example A (non-stoichiometric hydrate)): ≤ 0.3
water activity at which Canagliflozin was physically stable ([7]; Example B (amorphous formulation)): ≤ 0.4
Compound: Cc1ccc([C@@H]2O[C@H](CO)[C@@H](O)[C@H](O)[C@H]2O)cc1Cc1ccc(-c2ccc(F)cc2)s1 [Canagliflozin, 1-(β-D-glucopyranosyl)-4-methyl-3-[5-(4-fluorophenyl)-2-thienylmethyl]benzene]

Rel. Solubilities [8]: 100%
increased aqueous solubility compared to the crystalline hemihydrate of WO 2008/069327 A1 [8]: 10%
Abs. Solubilities ([8]; 60 minutes of stirring): 20 µg/mL
Compound: Cc1ccc([C@@H]2O[C@H](CO)[C@@H](O)[C@H](O)[C@H]2O)cc1Cc1ccc(-c2ccc(F)cc2)s1 [form HxB, 1-(β-D-glucopyranosyl)-4-methyl-3-[5-(4-fluorophenyl)-2-thienylmethyl]benzene form HxB]

Rel. Solubilities [8]: 90%
Compound: Cc1ccc([C@@H]2O[C@H](CO)[C@@H](O)[C@H](O)[C@H]2O)cc1Cc1ccc(-c2ccc(F)cc2)s1 [hemihydrate of WO 2008/069327 A1 (=Hy0.5)] [1-(β-D-glucopyranosyl)-4-methyl-3-[5-(4-fluorophenyl)-2-thienylmethyl]benzene]
degradation products (impurities) in binary mixtures with excipients ([3]; listed as Canagliflozin hemihydrate): impurities were increased when containing excipients such as Syloid, PEG 6000 and Polyoxyl 40 hydrogenated castor oil

Rel. Solubilities [8]: 100%
increased aqueous solubility compared to the crystalline hemihydrate of WO 2008/069327 A1 [8]: 10%
Abs. Solubilities ([8]; 60 minutes of stirring): 20 µg/mL
Compound: Cc1ccc([C@@H]2O[C@H](CO)[C@@H](O)[C@H](O)[C@H]2O)cc1Cc1ccc(-c2ccc(F)cc2)s1 [form HxA, 1-(β-D-glucopyranosyl)-4-methyl-3-[5-(4-fluorophenyl)-2-thienylmethyl]benzene form HxA]

solubility at 60 min ([8]; 25 °C, thermodynamic from solid, 60 minutes of stirring, read-out: Abs. Solubilities): 18 µg/mL (≈ 0.0405 mM)
Compound: Cc1ccc([C@@H]2O[C@H](CO)[C@@H](O)[C@H](O)[C@H]2O)cc1Cc1ccc(-c2ccc(F)cc2)s1 [1-(β-D-glucopyranosyl)-4-methyl-3-[5-(4-fluorophenyl)-2-thienylmethyl]benzene]
